Measurements from BindingDB's records for doi:10.7270/Q24T6GSH (The Scripps Research Institute Molecular Screening Center, 2007).

Molecular target: T1, Isoform 2 of Nuclear receptor ROR-alpha (Alpha-2) (Homo sapiens, UniProt P35398)
T1 sequence (P35398 whole entry): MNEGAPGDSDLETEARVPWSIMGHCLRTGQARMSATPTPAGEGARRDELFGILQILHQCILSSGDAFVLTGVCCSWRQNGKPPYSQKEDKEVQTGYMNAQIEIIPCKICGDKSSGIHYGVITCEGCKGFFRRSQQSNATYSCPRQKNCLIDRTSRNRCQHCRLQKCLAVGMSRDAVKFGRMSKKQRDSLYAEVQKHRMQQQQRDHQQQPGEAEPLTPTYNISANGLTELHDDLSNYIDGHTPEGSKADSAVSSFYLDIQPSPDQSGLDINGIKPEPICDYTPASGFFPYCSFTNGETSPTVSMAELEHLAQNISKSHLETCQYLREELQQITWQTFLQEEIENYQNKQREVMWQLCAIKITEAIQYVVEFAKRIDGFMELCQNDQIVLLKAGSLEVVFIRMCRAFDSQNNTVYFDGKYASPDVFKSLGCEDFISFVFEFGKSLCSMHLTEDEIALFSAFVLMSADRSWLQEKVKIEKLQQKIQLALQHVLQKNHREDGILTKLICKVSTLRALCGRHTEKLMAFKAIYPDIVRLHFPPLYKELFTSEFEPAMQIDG
Experiment: RORA Gal4 reporter activation in CHO-K1 cells, dose response, counter-screen for SF-1 activator project, cell-based, Gal4-RORA LBD, luciferase luminescence (AID 675)

| EC50 [µM] | SMILES |
| --- | --- |
| 5.36 | CN(C)C(=O)CSc1nnc(C23CC4CC(CC(C4)C2)C3)o1 [SMR000077996] |
| 0.403 | CCCCC1CCC(c2nc(-c3ccccn3)no2)CC1 (centres undefined) [SMR000105468] |
| 9.88 | CC1(C)CC(=O)C(=CNc2ccc3[nH]ncc3c2)C(=O)C1 [SMR000111453] |
| 0.741 | COCCn1c(C)cc(C(=O)COC(=O)C23CC4CC(CC(O)(C4)C2)C3)c1C [[2-[1-(2-methoxyethyl)-2,5-dimethylpyrrol-3-yl]-2-oxoethyl] 3-hydroxyadamantane-1-carboxylate] |
